Laboratory results published in patent US20180369238A1, “DOPAMINE AGONISTS IN TREATING ALCOHOL USE DISORDERS ASSOCIATED WITH DOPAMINE RECEPTOR ACTIVITY” (MUSC Foundation for Research Development, priority 2017, published 2018).

What was measured:
[1] = tested on: non-treatment-seeking AUD individuals; assay: fMRI alcohol cue-reactivity task (alcohol cue-elicited ventral striatal activation); format: in vivo, human; parameters: VS Activation: effect size of interaction medication x genotype permutation: scale not given here; conditions: for Alcohol cue-elicited VS activation (ALC vs. BEV percent signal change): APZ relative to placebo, day 7; for VS Activation: effect size of interaction medication x genotype permutation: n = 81
Description: (§1) The study was an eight-day sub-acute dosing human laboratory investigation (ClinicalTrials.gov identifier: NCT01292057). After randomization to study medication, subjects underwent an fMRI alcohol cue-reactivity task on day 7 of medication ingestion and a bar-lab paradigm on day 8. To maximize cue-reactivity and motivation to drink, they were instructed to abstain from alcohol on the evenings of days 6 and 7.
(§2) Randomization and medication. […] Subjects and investigators were blind to both genotype and medication assignment. Thus, subjects were stratified by their baseline Barratt Impulsiveness Scale (BIS-11) score (Patton et al., 1995) into groups with BIS-11 scores greater vs. less than the median score of 68 and randomization was conducted separately within each stratum. Urn variables balanced across medication groups within each stratum were sex and smoking status.
Neuroimaging. On day 7, subjects were breathalyzed, assessed for alcohol withdrawal, and re-administered the OCDS. As noted above, one subject with a BAC>0 and two subjects with Clinical Institute Withdrawal Assessment for Alcohol-Revised scores >4 were excluded from scanning. After acquisition of a high-resolution anatomical image, subjects were given a sip (10 ml) of their preferred 80-proof liquor mixed with fruit juice and administered a 12-m-long task during which they passively viewed pseudo-randomly interspersed blocks of alcoholic beverage images (ALC; equally distributed between beer, wine, and liquor), nonalcoholic beverage images (BEV), blurred versions of these images that served as visual controls, and a fixation cross. Each 24-s-long block comprised only one image type and was followed by a 6-s period during which subjects were instructed to rate their urge for alcohol. Images were selected from a normative set, supplemented with images from advertisements, and matched for intensity, color, and complexity. This task consistently elicits robust cue-elicited VS activation among non-treatment-seeking AUD individuals.
Functional images were acquired with a gradient echo, echo-planar imaging sequence implemented on a 3T TIM Trio scanner (Siemens, Erlangen, Germany). Acquisition parameters were: repetition/echo times=2200/35 ms; 328 volumes; flip angle=90°; field of view=192 mm; matrix=64×64; voxel size=3.0×3.0 mm; 36 contiguous 3.0-mm-thick transverse slices. Using FEAT (fMRI Expert Analysis Tool) v. 6.00, part of FSL (FMRIB Software Library, University of Oxford, United Kingdom), functional images were realigned to the middle volume, spatially smoothed (8-mm full width at half maximum kernel), resampled to 2-mm isotropic voxels, and registered, first to the subject's high-resolution anatomical image and subsequently to the Montreal Neurological Institute (MNI; Montréal, Canada) 152-subject-average template. Based on previous data indicating an interaction between DAT1/SLC6A3 genotype and naltrexone on alcohol cue-elicited VS activation, the right VS was defined a priori as a 6-mm-radius sphere centered at the point [12 15 −6] in MNI space. For each subject, this sphere was reverse-registered from the MNI-152 image to the subject's anatomical image, and the average percentage change of the blood-oxygen-level-dependent signal between ALC and BEV blocks (i.e., ALC vs. BEV percent signal change) was extracted.
Statistical analysis. The general linear model (GLM; SPSS 23, IBM, Armonk, N.Y., United States of America) was used to test the interaction between medication and DAT1/SLC6A3 genotype on the primary outcomes (VS ALC vs. BEV activation and the number of drinks consumed in the bar lab). A model that included between-subjects factors for medication, DAT1/SLC6A3 genotype, and their interaction was tested for each outcome. Analyses first compared 9R carriers to 10R homozygotes, and subsequently examined the additive effect of the 9R allele. […] Significant interactions were followed up with simple effects contrasts. […]

[2] = tested on: non-treatment-seeking AUD individuals; assay: Bar-lab paradigm (alcohol self-administration); format: in vivo, human; conditions: for Bar Lab Drinks: effect size of interaction medication x genotype permutation: n = 94
Description: as §1, §2
Bar-lab paradigm. […] Thirty minutes later, they were provided a standard caloric lunch, adjusted for gender and weight. At 2:00 PM, subjects were administered a priming drink of their preferred 80-proof liquor in a 1:3 ratio with juice, adjusted for gender, age, and weight to produce a targeted BAC of 30 mg %, and instructed to consume it within five minutes. Forty minutes later, subjects were presented a tray of four drinks, each with a targeted BAC of 15 mg %, and told they could consume as many as they desired over the next hour. After an hour, this tray was removed and another tray of four drinks was made available for consumption over a second hour. To create a decisional balance between drinking and abstaining, subjects were given a “bar credit” of $16 with which to “purchase” drinks, at the cost of $2/drink. After the procedure, subjects were given dinner and remained until 10:00 PM. A BAC measurement below 20 mg % was required before departure, and a friend or taxi drove subjects home.
Statistical analysis. The general linear model (GLM; SPSS 23, IBM, Armonk, N.Y., United States of America) was used to test the interaction between medication and DAT1/SLC6A3 genotype on the primary outcomes (VS ALC vs. BEV activation and the number of drinks consumed in the bar lab). A model that included between-subjects factors for medication, DAT1/SLC6A3 genotype, and their interaction was tested for each outcome. Analyses first compared 9R carriers to 10R homozygotes, and subsequently examined the additive effect of the 9R allele. […] Significant interactions were followed up with simple effects contrasts. VS activation was also analyzed for correlation (Pearson's r) with day 7 OCDS scores and bar-lab drinking.
The GLM was also used to test the interaction between medication and a DA-related genetic composite on the primary outcomes. The DAT1/SLC6A3 9R, COMT met, DRD2 T, and DRD4 long alleles were categorized as higher-DA alleles, and the total number of alleles each subject carried was calculated (Table 2). Few subjects carried more than four higher-DA alleles (four subjects had five alleles and one had seven), so these subjects were combined with those who carried four, yielding five groups of subjects with zero (n=7), one (n=15), two (n=31), three (n=22), or four or more (n=18) alleles. A model that included between-subjects factors for medication, the additive effect of the number of higher-DA alleles, and their interaction was tested for each outcome.

[3] = tested on: non-treatment-seeking AUD individuals; assay: Adverse effects, physical symptom checklist; format: in vivo, human; conditions: for Number of subjects with insomnia severity Mild / Number of subjects with insomnia severity Moderate / Number of subjects with insomnia severity None / Number of subjects with insomnia severity Severe: APZ group
Description: Adverse effects. A physical symptom checklist was used to assess the presence and severity (self-rated as none, mild, moderate, or severe) of 21 possible adverse effects at baseline and on day 8 immediately before the bar-lab paradigm.
For the secondary outcome (adverse effect severity), the GLM was first used to evaluate the main effect of medication on the presence/absence of each effect. […] To account for the influence of these effects on the pharmacogenetic interactions evaluated above, the presence/absence of each was evaluated as a covariate in all models.

AUD = conditions: multisite AUD clinical trial; cited from earlier work
[4] = cited from earlier work
healthy adults = conditions: relative to placebo; healthy adults who carried more higher-DA alleles; cited from earlier work
[5] = 9R carriers vs. 10R homozygotes, APZ vs. placebo
[6] = DAT1 (additive effect of 9R alleles), APZ reduced more with more alleles
[7] = DAT1 (additive effect of 9R alleles), APZ reduced more with more alleles, listed as aripiprazole
[8] = DAT1 + COMT + DRD2 + DRD4 (higher-DA alleles composite)

With `O=C1CCc2ccc(OCCCCN3CCN(c4cccc(Cl)c4Cl)CC3)cc2N1` [APZ, aripiprazole] the “Effect size (partial η2) of interaction medication x DAT1/SLC6A3 genotype on VS activation” value [1, 5] was 0.061, the “Alcohol cue-elicited VS activation (ALC vs. BEV percent signal change)” value ([1]; DAT1/SLC6A3 9R carriers) was “reduced VS activation” and the “Alcohol cue-elicited VS activation (ALC vs. BEV percent signal change)” value ([1]; DAT1/SLC6A3 10R homozygotes) was “increased it”. For the same compound, the “VS Activation: effect size of interaction medication x genotype permutation” value (“VS Activation: effect size” for short) [1, 6] was 0.067, the “VS Activation: effect size” value [1, 7] was 0.063 and the “VS Activation: effect size” value [1, 8] was 0.051. For the same compound, the “VS Activation: effect size” value ([1]; DAT1 + COMT + DRD2) was 0.026, the “VS Activation: effect size” value ([1]; DAT1 + DRD2 + DRD4) was 0.084 and the “VS Activation: effect size” value ([1]; DAT1 + DRD2) was 0.068. The “VS Activation: effect size” value ([1]; DAT1 + DRD4) was 0.077, the “Effect size (partial η2) of interaction medication x DAT1/SLC6A3 genotype on bar-lab drinking” value [2, 5] was 0.064 and the “Bar-lab drinking (number of drinks consumed)” value ([2]; APZ relative to placebo, DAT1/SLC6A3 9R carriers, day 8) was “reduced drinking”. The “Effect size (partial η2) of main effect of medication on bar-lab drinking” value ([2]; APZ vs. placebo, all subjects) was 0.049, the “Bar Lab Drinks: effect size of interaction medication x genotype permutation” value (“Bar Lab Drinks: effect size” for short) [2, 6] was 0.068 and the “Bar Lab Drinks: effect size” value [2, 7] was 0.050. The “Bar Lab Drinks: effect size” value [2, 8] was 0.069, the “Bar Lab Drinks: effect size” value ([2]; DAT1 + COMT + DRD2) was 0.100 and the “Bar Lab Drinks: effect size” value ([2]; DAT1 + COMT + DRD4) was 0.071. The “Bar Lab Drinks: effect size” value ([2]; DAT1 + COMT) was 0.079, the “Bar Lab Drinks: effect size” value ([2]; DAT1 + DRD2 + DRD4) was 0.072 and the “Bar Lab Drinks: effect size” value ([2]; DAT1 + DRD2) was 0.081. The “Bar Lab Drinks: effect size” value ([2]; DAT1 + DRD4) was 0.045, the “Effect size (partial η2) of simple effect of medication on bar-lab drinking” value ([2]; among DAT1/SLC6A3 9R carriers, APZ vs. placebo) was 0.12 and the “Effect size (partial η2) of simple effect of medication on bar-lab drinking” value ([2]; among subjects with four or more higher-DA alleles, APZ vs. placebo) was 0.15. For the same compound, the “Number of subjects with insomnia severity Mild” value ([3]; 9R carriers) was 11, the “Number of subjects with insomnia severity Moderate” value ([3]; 9R carriers) was 6 and the “Number of subjects with insomnia severity None” value ([3]; 9R carriers) was 11. The “Number of subjects with insomnia severity Severe” value ([3]; 9R carriers) was 0, the “Number of subjects with insomnia severity Mild” value ([3]; 10R homozygotes) was 8 and the “Number of subjects with insomnia severity Moderate” value ([3]; 10R homozygotes) was 4. For the same compound, the “Number of subjects with insomnia severity None” value ([3]; 10R homozygotes) was 2, the “Number of subjects with insomnia severity Severe” value ([3]; 10R homozygotes) was 4 and the “Frequency of insomnia, daytime sleepiness, irritability, trouble concentrating, nausea/vomiting, dizziness, fatigue, blurry vision, difficulty reaching orgasm” value ([3]; APZ group vs. placebo, p<0.05, day 8) was “significantly more frequent”. The Insomnia severity ([3]; APZ relative to placebo, DAT1/SLC6A3 9R carriers) was “did not”, the Insomnia severity ([3]; APZ relative to placebo, DAT1/SLC6A3 10R homozygotes) was “more severe insomnia” and the Insomnia severity ([3]; among subjects who received APZ, with a greater number of higher-DA alleles) was “less severe”. For the same compound, the Alcohol consumption biomarker (AUD) was “significantly improve”, the “Drinks per drinking day” value (AUD) was “significantly improve” and the “Primary drinking outcome (percent days abstinent)” value (AUD) was “did not significantly change”. The “Euphoric effects of alcohol drinking” value ([4]; natural environment or bar-lab setting) was “reduce” and the “Alcohol cue-elicited VS activation” value ([4]; reported earlier) was “reduce”.

In the case of `CCCN(CCC)CCc1cccc2c1CC(=O)N2` [ropinirole], the Impulsive decisions (healthy adults) is given as “increased impulsive decisions”.
